Legend:
human 5-HT6 receptor = human 5-HT6 receptor (Homo sapiens (Human), UniProt P50406); experiment: Radioligand binding assay, human 5-HT6 receptor expressed in CHO cell; conditions: 2 nM [3H]LSD
Procedure: Example A: The Binding Affinities of the Compounds of this Invention to Human 5-HT6 Receptor Expressed in CHO Cell were Evaluated by Radioligand Binding Assay as Follows
32 μg membrane proteins of CHO cell expressing human 5-HT6 receptor, 2 nM of radioactive marker [3H]LSD, a compound of the present invention having different test concentrations, 100 μM 5-HT (5-HT was used to eliminate nonspecific binding sites) and a buffer solution were mixed uniformly. Then the resulting mixture was incubated at 37° C. for 120 min, in which the buffer solution comprised 50 mM Tris-HCl (pH 7.4), 10 mM MgCl2, 0.5 mM EDTA, 10 μM pargyline and 20 mg/L protease inhibitor.
After incubation, the resulting mixture was filtered by a fiberglass filter (GF/B, Packard) in vacuo, and the filter membrane of the fiberglass filter was preimpregnated with 0.3% PEI before the filtering and washed with 50 mM of Tris-HCl for several times after the filtering. After the filter membrane was dried, and the radioactivity of filter membrane was determined by liquid scintillation counting by using a scintillometer (Topcount, Packard). The reference standard was 5-HT, and competitive inhibition curves were plotted based on several inhibition ratios and the corresponding compound concentrations. IC50 values were calculated by non-linear regression analysis using Hill equation curves, and the Ki values were calculated from IC50 by using the ChengPrusoff equation.

[1] = Stability in rat liver microsomes; type: in vitro ADME; conditions: rat liver microsome 0.5 mg/mL, 1 μM compound, 37° C.; for half-life at 1 μM: pH 7.4; for CLint scaled at 1 μM: pH 7.4, read-out: Intrinsic clearance
Procedure: (§1) Example C: Evaluation of the Stability of the Compounds of the Invention in Rat and Human Liver Microsomes
(§2) The compound of the invention and rat liver microsome or human liver microsome were placed in 0.1 M potassium phosphate buffer (containing 1.0 mM EDTA, pH=7.4) at 37° C., and the mixture was incubated at 37° C. The concentrations of the compound at different incubation time points were determined, and the half-life of the compound was calculated by curve plotted based on the relative contents of the compound and the corresponding incubation times by using GraphPad Prism 5.01. Then the intrinsic clearance was calculated.
(§3) The peak area ratio of sample to internal standard was analyzed by the LC/MS/MS system. The content of the compound at 0 min was 100%, and the relative contents of the compound at different time points were calculated. The half-life of the compound was calculated by curve plotted based on the relative contents of the compound and the corresponding incubation times, and the intrinsic clearance was calculated.

[2] = Stability in human liver microsomes; type: in vitro ADME
Procedure: as §1, §2, §3

Chain of human 5-HT6 receptor (P50406 whole entry): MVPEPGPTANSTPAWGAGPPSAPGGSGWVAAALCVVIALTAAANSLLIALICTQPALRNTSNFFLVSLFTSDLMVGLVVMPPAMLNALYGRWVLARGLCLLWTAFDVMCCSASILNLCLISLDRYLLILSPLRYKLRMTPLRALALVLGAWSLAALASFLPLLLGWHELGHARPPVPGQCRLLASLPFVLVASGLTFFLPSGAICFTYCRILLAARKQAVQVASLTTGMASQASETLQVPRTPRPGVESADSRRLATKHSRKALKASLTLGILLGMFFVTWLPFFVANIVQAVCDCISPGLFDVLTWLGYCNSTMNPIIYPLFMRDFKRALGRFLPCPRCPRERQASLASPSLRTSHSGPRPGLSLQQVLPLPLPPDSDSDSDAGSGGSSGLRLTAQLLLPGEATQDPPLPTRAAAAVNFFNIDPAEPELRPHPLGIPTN

| Structure (SMILES) | Ki (human 5-HT6 receptor) | also measured |
| --- | --- | --- |
| O=S(=O)(c1ccccc1)n1cc(C(F)F)c2c(N3CCNCC3)cccc21 [Example 1, 3-(difluoromethyl)-1-(phenylsulfonyl)-4-(piperazin-1-yl)-1H-indole] | 1.6 nM | – |
| O=S(=O)(c1ccccc1Br)n1cc(C(F)F)c2c(N3CCNCC3)cccc21 [Example 4, 1-((2-bromophenyl)sulfonyl)-3-(difluoromethyl)-4-(piperazin-1-yl)-1H-indole] | 1.1 nM | half-life at 1 μM [1]: 30.4 min; CLint scaled at 1 μM [1]: 81.8 mL/min/kg; half-life at 1 μM ([2]; liver microsomes, human liver microsome 0.5 mg/mL, 1 μM compound, 37° C., pH 7.4): 157 min; CLint scaled at 1 μM ([2]; liver microsomes, human liver microsome 0.5 mg/mL, 1 μM compound, 37° C., pH 7.4, read-out: Intrinsic clearance): 11.1 mL/min/kg |
| O=S(=O)(c1cccc(Cl)c1)n1cc(C(F)F)c2c(N3CCNCC3)cccc21 [Example 6, 1-((3-chlorophenyl)sulfonyl)-3-(difluoromethyl)-4-(piperazin-1-yl)-1H-indole] | 0.68 nM | half-life at 1 μM [1]: 35.5 min; CLint scaled at 1 μM [1]: 70 mL/min/kg; degradation in human liver microsomes in vitro ([2]; in 60 minutes): almost had no degradation |
| COc1ccc(S(=O)(=O)n2cc(C(F)F)c3c(N4CCNCC4)cccc32)cc1 [Example 8, 3-(difluoromethyl)-1-((4-methoxyphenyl)sulfonyl)-4-(piperazin-1-yl)-1H-indole] | 12 nM | – |
| O=S(=O)(c1ccccc1)n1cc(C(F)F)c2cc(N3CCNCC3)ccc21 [Example 11, 3-(difluoromethyl)-1-(phenylsulfonyl)-5-(piperazin-1-yl)-1H-indole] | 11 nM | – |
| O=S(=O)(c1ccccc1Cl)n1cc(C(F)F)c2cc(N3CCNCC3)ccc21 [Example 13, 1-((2-chlorophenyl)sulfonyl)-3-(difluoromethyl)-5-(piperazin-1-yl)-1H-indole] | 13 nM | – |
| O=S(=O)(c1ccccc1Br)n1cc(C(F)F)c2cc(N3CCNCC3)ccc21 [Example 14, 1-((2-bromophenyl)sulfonyl)-3-(difluoromethyl)-5-(piperazin-1-yl)-1H-indole] | 20 nM | – |
| COc1ccc(S(=O)(=O)n2cc(C(F)F)c3cc(N4CCNCC4)ccc32)cc1 [Example 16, 3-(difluoromethyl)-1-((4-methoxyphenyl)sulfonyl)-5-(piperazin-1-yl)-1H-indole] | 67 nM | – |
| O=S(=O)(c1cccc(Br)c1)n1cc(C(F)F)c2cc(N3CCNCC3)ccc21 [Example 19, 1-((3-bromophenyl)sulfonyl)-3-(difluoromethyl)-5-(piperazin-1-yl)-1H-indole] | 13 nM | – |
| O=S(=O)(c1ccc(Cl)cc1)n1cc(C(F)F)c2cc(N3CCNCC3)ccc21 [Example 20, 1-((4-chlorophenyl)sulfonyl)-3-(difluoromethyl)-5-(piperazin-1-yl)-1H-indole] | 44 nM | – |
| O=S(=O)(c1ccccc1F)n1cc(C(F)F)c2c(N3CCNCC3)cc(Cl)cc21 [Example 24, 6-chloro-3-(difluoromethyl)-1-((2-fluorophenyl)sulfonyl)-4-(piperazin-1-yl)-1H-indole] | 1.6 nM | – |
| O=S(=O)(c1ccccc1Cl)n1cc(C(F)F)c2c(N3CCNCC3)cc(Cl)cc21 [Example 25, 6-chloro-1-((2-chlorophenyl)sulfonyl)-3-(difluoromethyl)-4-(piperazin-1-yl)-1H-indole] | 0.68 nM | – |
| O=S(=O)(c1ccccc1Br)n1cc(C(F)F)c2c(N3CCNCC3)cc(Cl)cc21 [Example 26, 1-((2-bromophenyl)sulfonyl)-6-chloro-3-(difluoromethyl)-4-(piperazin-1-yl)-1H-indole] | 1.1 nM | – |
| O=S(=O)(c1cccc(F)c1)n1cc(C(F)F)c2c(N3CCNCC3)cc(Cl)cc21 [Example 27, 6-chloro-3-(difluoromethyl)-1-((3-fluorophenyl)sulfonyl)-4-(piperazin-1-yl)-1H-indole] | 1.9 nM | – |
| O=S(=O)(c1cccc(Cl)c1)n1cc(C(F)F)c2c(N3CCNCC3)cc(Br)cc21 [Example 36, 6-bromo-1-((3-chlorophenyl)sulfonyl)-3-(difluoromethyl)-4-(piperazin-1-yl)-1H-indole] | 1.7 nM | – |
| CN1CCN(c2cccc3c2c(C(F)F)cn3S(=O)(=O)c2cccc(F)c2)CC1 [Example 42, 3-(difluoromethyl)-1-((3-fluorophenyl)sulfonyl)-4-(4-methylpiperazin-1-yl)-1H-indole] | 0.7 nM | – |
| CC(C)N1CCN(c2cccc3c2c(C(F)F)cn3S(=O)(=O)c2cccc(F)c2)CC1 [Example 44, 3-(difluoromethyl)-1-((3-fluorophenyl)sulfonyl)-4-(4-isopropylpiperazin-1-yl)-1H-indole] | 27 nM | – |
| O=S(=O)(c1cccc(F)c1)n1cc(C(F)F)c2c(NC3CCNCC3)cccc21 [Example 52, 3-(difluoromethyl)-1-((3-fluorophenyl)sulfonyl)-N-(piperidin-4-yl)-1H-indol-4-amine] | 18 nM | – |
| O=S(=O)(c1cccc(Br)c1)n1cc(C(F)F)c2c(NC3CCNCC3)cccc21 [Example 54, 1-((3-bromophenyl)sulfonyl)-3-(difluoromethyl)-N-(piperidin-4-yl)-1H-indol 4-amine] | 11 nM | – |

Now from value to molecule, other results behind:

| Ki (human 5-HT6 receptor) | Structure (SMILES) | also measured |
| --- | --- | --- |
| 6.4 nM | Cc1ccc(S(=O)(=O)n2cc(C(F)F)c3c(N4CCNCC4)cccc32)cc1 [Example 7, 3-(difluoromethyl)-4-(piperazin-1-yl)-1-tosyl-1H-indole] | – |
| 0.5 nM | O=S(=O)(c1ccc2ccccc2c1)n1cc(C(F)F)c2c(N3CCNCC3)cccc21 [Example 10, 3-(difluoromethyl)-1-(naphthalen-2-ylsulfonyl)-4-(piperazin-1-yl)-1H-indole] | – |
| 30 nM | O=S(=O)(c1ccccc1F)n1cc(C(F)F)c2cc(N3CCNCC3)ccc21 [Example 12, 3-(difluoromethyl)-1-((2-fluorophenyl)sulfonyl)-5-(piperazin-1-yl)-1H-indole] | – |
| 17 nM | Cc1ccc(S(=O)(=O)n2cc(C(F)F)c3cc(N4CCNCC4)ccc32)cc1 [Example 15, 3-(difluoromethyl)-5-(piperazin-1-yl)-1-tosyl-1H-indole] | – |
| 13 nM | O=S(=O)(c1cccc(F)c1)n1cc(C(F)F)c2cc(N3CCNCC3)ccc21 [Example 17, 3-(difluoromethyl)-1-((3-fluorophenyl)sulfonyl)-5-(piperazin-1-yl)-1H-indole] | – |
| 15 nM | O=S(=O)(c1cccc(Cl)c1)n1cc(C(F)F)c2cc(N3CCNCC3)ccc21 [Example 18, 1-((3-chlorophenyl)sulfonyl)-3-(difluoromethyl)-5-(piperazin-1-yl)-1H-indole] | – |
| 44 nM | O=S(=O)(c1ccc(Br)cc1)n1cc(C(F)F)c2cc(N3CCNCC3)ccc21 [Example 21, 1-((4-bromophenyl)sulfonyl)-3-(difluoromethyl)-5-(piperazin-1-yl)-1H-indole] | – |
| 9.3 nM | O=S(=O)(c1ccccc1C(F)(F)F)n1cc(C(F)F)c2c(N3CCNCC3)cc(Cl)cc21 [Example 23, 6-chloro-3-(difluoromethyl)-4-(piperazin-1-yl)-1-((2-(trifluoromethyl)phenyl)sulfonyl)-1H-indole] | – |
| 1.4 nM | O=S(=O)(c1cccc(Cl)c1)n1cc(C(F)F)c2c(N3CCNCC3)cc(Cl)cc21 [Example 28, 6-chloro-1-((3-chlorophenyl)sulfonyl)-3-(difluoromethyl)-4-(piperazin-1-yl)-1H-indole] | – |
| 1.3 nM | O=S(=O)(c1cccc(Br)c1)n1cc(C(F)F)c2c(N3CCNCC3)cc(Cl)cc21 [Example 29, 1-((3-bromophenyl)sulfonyl)-6-chloro-3-(difluoromethyl)-4-(piperazin-1-yl)-1H-indole] | – |
| 1.9 nM | O=S(=O)(c1cccc(F)c1)n1cc(C(F)F)c2c(N3CCNCC3)cc(Br)cc21 [Example 35, 6-bromo-3-(difluoromethyl)-1-((3-fluorophenyl)sulfonyl)-4-(piperazin-1-yl)-1H-indole] | – |
| 1.5 nM | O=S(=O)(c1cccc(Br)c1)n1cc(C(F)F)c2c(N3CCNCC3)cc(Br)cc21 [Example 37, 6-bromo-1-((3-bromophenyl)sulfonyl)-3-(difluoromethyl)-4-(piperazin-1-yl)-1H-indole] | – |
| 2.3 nM | CCN1CCN(c2cccc3c2c(C(F)F)cn3S(=O)(=O)c2cccc(F)c2)CC1 [Example 43, 3-(difluoromethyl)-4-(4-ethylpiperazin-1-yl)-1-((3-fluorophenyl)sulfonyl)-1H-indole] | – |
| 65 nM | O=S(=O)(c1ccccc1)n1cc(C(F)F)c2c(NC3CCNCC3)cccc21 [Example 55, 3-(difluoromethyl)-1-(phenylsulfonyl)-N-(piperidin-4-yl)-1H-indol-4-amine] | – |
